Assays:
Assay type in all cases: cell-based
[1] = target: T1, human trace amine-associated receptor 1 (TAAR1) (Homo sapiens, UniProt Q96RJ0); experiment: TAAR1 activation, intracellular cAMP (ELISA) in HEK293T cells stably expressing human TAAR1; conditions: for Emax / Emax at 300 µM: HEK-293T; for EC50: cAMP, HEK293T-hTAAR1 cells, 1 h exposure, average (95% confidence interval), 3–5 experiments; for Emax at 300 µM: read-out: TAAR1 effect at 300 µM, at 300 µM, % of the maximal effect obtained by phenethylamine, compounds that showed only an effect at 300 µM
T1 construct: expressed in transfected cells
T1 sequence (Q96RJ0 1-339): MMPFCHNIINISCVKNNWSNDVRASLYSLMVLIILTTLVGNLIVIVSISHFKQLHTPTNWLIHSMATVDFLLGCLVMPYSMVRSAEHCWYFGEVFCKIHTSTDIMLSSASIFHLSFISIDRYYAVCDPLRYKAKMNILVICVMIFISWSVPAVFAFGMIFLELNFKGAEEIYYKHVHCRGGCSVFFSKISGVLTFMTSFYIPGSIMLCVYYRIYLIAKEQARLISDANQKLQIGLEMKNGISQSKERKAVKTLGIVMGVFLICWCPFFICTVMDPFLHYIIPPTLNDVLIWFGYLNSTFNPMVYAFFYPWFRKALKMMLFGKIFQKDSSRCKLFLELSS
Description: The cells were seeded (90,000–250,000 cells/well) in a 48-well plate two days before the assay. Two hours before the assay, the cells were incubated with the culture medium containing 10% charcoal-stripped foetal bovine serum (Gibco, Grand Island, NY, USA). The assay was performed in Earle’s balanced salt solution (EBSS) (Gibco, Paisley, UK), containing 15 mM HEPES (Gibco, Paisley, UK), 1 mM IBMX and 0.02% ascorbic acid. First, the cells were pre-incubated for 20 min in the supplemented buffer. Subsequently, the cells were exposed to the test compounds for 1 h in an incubator at 37 °C with 5% CO2. After 1 h, the buffer was discarded and the cells were lysed with 3% trichloroacetic acid and incubated at room temperature on a plate shaker for 2 h. Cell lysates were further diluted and cAMP was measured using a cAMP ELISA kit (Cayman Chemical, Ann Arbor, MI, USA), according to the manufacturer’s protocol.
Concentration–response relationships are shown as mean ± SD.

[2] = target: T2, human adrenergic receptor (ADR) α1D (Homo sapiens, UniProt P25100); experiment: ADRα1D activation, Ca2+ influx (Fluo-8) in overexpressing chem-1 cells; conditions: for EC50: Ca2+ response, chem-1 cells, average (95% confidence interval), 7–9 experiments; for Emax: Chem-1; for ADRα1D Emax: % of maximal signal obtained by adrenaline, average (95% CI)
T2 construct: host or cells: rat chem-1 cells
T2 sequence (P25100 1-572): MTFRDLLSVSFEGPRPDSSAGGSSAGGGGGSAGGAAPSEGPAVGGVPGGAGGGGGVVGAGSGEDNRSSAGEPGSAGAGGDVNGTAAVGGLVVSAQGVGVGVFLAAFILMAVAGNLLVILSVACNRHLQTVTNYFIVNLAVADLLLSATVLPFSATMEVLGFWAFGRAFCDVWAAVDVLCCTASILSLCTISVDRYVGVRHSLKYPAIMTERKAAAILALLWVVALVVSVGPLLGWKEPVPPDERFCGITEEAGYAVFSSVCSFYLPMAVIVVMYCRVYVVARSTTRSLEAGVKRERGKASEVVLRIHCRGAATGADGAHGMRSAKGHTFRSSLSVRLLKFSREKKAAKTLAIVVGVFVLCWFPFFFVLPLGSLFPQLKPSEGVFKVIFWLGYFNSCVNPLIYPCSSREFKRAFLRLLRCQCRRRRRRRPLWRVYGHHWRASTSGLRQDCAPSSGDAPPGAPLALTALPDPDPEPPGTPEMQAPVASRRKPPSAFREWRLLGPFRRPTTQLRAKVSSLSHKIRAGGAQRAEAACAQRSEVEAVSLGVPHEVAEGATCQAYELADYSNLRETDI

[3] = target: T3, human adrenergic receptor (ADR) α1A (Homo sapiens, UniProt P35348); experiment: ADRα1A activation, Ca2+ influx (Fluo-8) in overexpressing chem-1 cells; conditions: for EC50: Ca2+ response, chem-1 cells, average (95% confidence interval), 7–9 experiments; for Emax: Chem-1; for ADRα1A Emax: % of maximal signal obtained by adrenaline, average (95% CI)
T3 construct: host or cells: rat chem-1 cells
T3 sequence (P35348 1-466): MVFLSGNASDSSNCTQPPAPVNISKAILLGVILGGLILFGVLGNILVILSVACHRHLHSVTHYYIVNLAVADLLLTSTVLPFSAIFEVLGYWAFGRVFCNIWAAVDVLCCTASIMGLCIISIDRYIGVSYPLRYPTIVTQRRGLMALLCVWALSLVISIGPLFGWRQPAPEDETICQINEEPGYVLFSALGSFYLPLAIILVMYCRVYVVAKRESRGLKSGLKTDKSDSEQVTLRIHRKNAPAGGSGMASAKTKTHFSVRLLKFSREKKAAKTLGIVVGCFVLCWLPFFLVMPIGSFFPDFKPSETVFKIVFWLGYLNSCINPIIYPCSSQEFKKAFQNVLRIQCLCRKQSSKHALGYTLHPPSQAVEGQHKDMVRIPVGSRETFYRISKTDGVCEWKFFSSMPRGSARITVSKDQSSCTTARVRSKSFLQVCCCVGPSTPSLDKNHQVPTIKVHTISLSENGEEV

[4] = % of maximal cAMP level obtained by phenethylamine, average (95% CI)

| Compound | Emax [1, 4] [%] | EC50 [1] [µM] | EC50 [2] [µM] | Emax [2] [%] | EC50 [3] [µM] | Emax [3] [%] | ADRα1D Emax [2] | ADRα1A Emax [3] | Emax at 300 µM [1] [%] | TAAR1 Emax [1, 4] | activation of TAAR1 ([1]; concentrations up to 300 µM) |
| --- | --- | --- | --- | --- | --- | --- | --- | --- | --- | --- | --- |
| CNCC(O)c1ccccc1 (centres unmarked) [Halostachine, halostachine] | 104 | 74 | 2.1 | 82 | 8.7 | 59 |  |  |  |  |  |
| CNCC(O)c1ccc(O)cc1 (centres unmarked) [p-Synephrine, p-synephrine] | 85 | 92 |  | 80 | 2.4 | 82 |  |  |  |  |  |
| Oc1ccc(CC2NCCc3cc(O)c(O)cc32)cc1 (centres unmarked) [Higenamine, higenamine] | 93 | 0.98 | > 300 |  | > 300 |  | - | - |  |  |  |
| CC(C)CC(C)N (centres unmarked) |  | > 300 | > 300 |  | > 300 |  | - | - |  |  |  |
| CN(C)CCc1ccccc1 [Dimethylphenethylamine, N,N-dimethylphenethylamine] | 64 | 21 | 8.4 | 7.9 | > 300 |  |  | - |  |  |  |
| CN(C)CCO [Dimethylaminoethanol, dimethylaminoethanol] |  | > 300 | > 300 |  | > 300 |  | - | - | ~5 |  |  |
| NCC(O)c1ccc(O)cc1 (centres unmarked) [p-Octopamine, p-octopamine] | 85 | 46 | 1.2 | 100 | 11 | 87 |  |  |  |  |  |
| CC(CN)c1ccccc1 (stereo not drawn) [β-Methylphenethyl-amine, beta-methylphenethylamine] | 77 | 2.1 | > 300 |  | > 300 |  | - | - |  |  |  |
| CN(C)CCc1ccc(O)cc1 [Hordenine, hordenine] | 82 | 47 | 34 | 23 | > 300 |  |  | - |  |  |  |
| CC(C)NCC(O)c1ccc(O)cc1 (centres unmarked) [Isopropyloctopamine, isopropyloctopamine] | 40 | 1.8 | > 300 |  | > 300 |  | - | - |  |  |  |
| CNC(C)C(O)c1ccc(O)cc1 (centres unmarked) [Methylsynephrine] |  | > 300 | > 300 |  | 44 | 16 | - |  |  | - | did not activate |
| CCC(C)CC(C)N (centres unmarked) [1,3-Dimethylamylamine, 1,3-dimethylamylamine] |  | > 300 | > 300 |  | > 300 |  | - | - | 52 |  |  |
| CC(C)CCCC(C)N (centres unmarked) |  | > 300 | > 300 |  | > 300 |  | - | - | 36 |  |  |
| NCCc1ccccc1 [Phenethylamine, phenethylamine] | 97 | 8.8 | > 300 |  | > 300 |  | - | - |  |  |  |
| NCCc1ccc(O)cc1 [Tyramine, tyramine] | 77 | 9.5 | > 300 |  | > 300 |  | - | - |  |  |  |
